Results reported in PubChem BioAssay AID256 (DTP/NCI, 2004).
“And” between values parts separate entries of the source, which are not always exact repeats. Identical values can stand only once. Inconclusive results and toxic doses are left out. How the source made its calls: active means survival T/C of 150% or more; inactive means T/C below 125% in these data.

System: CD2F1 mice, L1210 leukemia ip, survival T/C
Assay: NCI In Vivo Anticancer Drug Screen. Data for tumor model L1210 Leukemia (intraperitoneal) in CD2F1 (CDF1) mice
Conditions: endpoint: mean survival time, higher = longer survival
Outline: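 Vehicle-treated tumor-bearing mice served as controls (C) for compound-treated mice (T). Reported figure is T divided by C.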

[1] = dose: 50.0 mg/kg/injection, schedule: Q01DX009 (ip), vehicle: saline
[2] = dose: 100.0 mg/kg/injection, schedule: Q01DX009 (ip), vehicle: saline
[3] = dose: 12.5 mg/kg/injection, schedule: Q01DX009 (ip), vehicle: saline with Tween-80
[4] = dose: 25.0 mg/kg/injection, schedule: Q01DX009 (ip), vehicle: saline with Tween-80
[5] = dose: 50.0 mg/kg/injection, schedule: Q01DX009 (ip), vehicle: saline with Tween-80
[6] = dose: 100.0 mg/kg/injection, schedule: Q04DX003 (ip), vehicle: saline with Tween-80
[7] = dose: 100.0 mg/kg/injection, schedule: Q01DX001 (ip), vehicle: saline with Tween-80
[8] = dose: 200.0 mg/kg/injection, schedule: Q04DX003 (ip), vehicle: saline with Tween-80
[9] = dose: 400.0 mg/kg/injection, schedule: Q04DX003 (ip), vehicle: saline with Tween-80
[10] = dose: 100.0 mg/kg/injection, schedule: Q01DX001 (ip), vehicle: Klucel (hydroxypropylcellulose) (HPC)
[11] = dose: 100.0 mg/kg/injection, schedule: Q01DX009 (ip), vehicle: Klucel (hydroxypropylcellulose) (HPC)
[12] = dose: 200.0 mg/kg/injection, schedule: Q01DX001 (ip), vehicle: Klucel (hydroxypropylcellulose) (HPC)
[13] = dose: 200.0 mg/kg/injection, schedule: Q01DX009 (ip), vehicle: Klucel (hydroxypropylcellulose) (HPC)
[14] = dose: 400.0 mg/kg/injection, schedule: Q01DX001 (ip), vehicle: Klucel (hydroxypropylcellulose) (HPC)
[15] = dose: 400.0 mg/kg/injection, schedule: Q01DX009 (ip), vehicle: Klucel (hydroxypropylcellulose) (HPC)
[16] = dose: 50.0 mg/kg/injection, schedule: Q04DX002 (ip), vehicle: saline with Tween-80
[17] = dose: 100.0 mg/kg/injection, schedule: Q04DX002 (ip), vehicle: saline with Tween-80
[18] = dose: 200.0 mg/kg/injection, schedule: Q04DX002 (ip), vehicle: saline with Tween-80
[19] = dose: 400.0 mg/kg/injection, schedule: Q04DX002 (ip), vehicle: saline with Tween-80
[20] = dose: 100.0 mg/kg/injection, schedule: Q01DX009 (ip), vehicle: saline with Tween-80
[21] = dose: 200.0 mg/kg/injection, schedule: Q01DX009 (ip), vehicle: saline with Tween-80
[22] = dose: 100.0 mg/kg/injection, schedule: Q01DX001 (ip), vehicle: saline
[23] = dose: 200.0 mg/kg/injection, schedule: Q01DX001 (ip), vehicle: saline
[24] = dose: 400.0 mg/kg/injection, schedule: Q01DX001 (ip), vehicle: saline

Measured: T/C

Cc1cc2c(cc1C)C(=O)c1ccccc1C2=O
inactive: [1] 102 % of control | [2] 93 % of control | dose: 100.0 mg/kg/injection, schedule: Q04DX003 (ip), vehicle: saline 97 % of control | dose: 200.0 mg/kg/injection, schedule: Q04DX003 (ip), vehicle: saline 89 % of control

CCc1ccc(C(=O)O)cc1S(=O)(=O)Cl
inactive: [3] 101 % of control | dose: 12.5 mg/kg/injection, schedule: Q04DX003 (ip), vehicle: saline with Tween-80 104 % of control | [4] 97 % of control | dose: 25.0 mg/kg/injection, schedule: Q04DX003 (ip), vehicle: saline with Tween-80 101 % of control | [5] 95 % of control | dose: 50.0 mg/kg/injection, schedule: Q04DX003 (ip), vehicle: saline with Tween-80 103 % of control | [6] 97 % of control

NCc1ccc(-c2nc3ncnc(N)c3[nH]2)cc1
inactive: dose: 3.13 mg/kg/injection, schedule: Q01DX001 (ip), vehicle: saline with Tween-80 108 % of control | dose: 6.25 mg/kg/injection, schedule: Q01DX001 (ip), vehicle: saline with Tween-80 102 % of control | dose: 12.5 mg/kg/injection, schedule: Q01DX001 (ip), vehicle: saline with Tween-80 100 % of control and 110 % of control | dose: 25.0 mg/kg/injection, schedule: Q01DX001 (ip), vehicle: saline with Tween-80 102 % of control | dose: 50.0 mg/kg/injection, schedule: Q01DX001 (ip), vehicle: saline with Tween-80 109 % of control | [7] 106 % of control and 110 % of control

O=S(=O)(O)C(O)c1cccc2ccccc12 (configuration not stated)
inactive: [6] 91 % of control | [8] 91 % of control | [9] 94 % of control

Cc1cc(Cl)ccc1N=Cc1ccc2c(c1)OCO2
inactive: [10] 95 % of control | [11] 108 % of control | [12] 102 % of control | [13] 105 % of control | [14] 95 % of control | [15] 98 % of control

COc1ccc(C(=O)CC(C#N)c2ccc(OC)c(OC)c2)cc1OC (configuration not stated)
inactive: [6] 98 % of control | [8] 101 % of control | [9] 98 % of control

O=[N+]([O-])c1ccc(N=Nc2ccccc2)cc1
inactive: [6] 90 % of control | [8] 92 % of control | [9] 92 % of control

Nc1nc2c(ncn2-c2ccc(Cl)c(Cl)c2)c(=O)[nH]1
inactive: [16] 98 % of control | [17] 93 % of control and 97 % of control | [18] 97 % of control | [19] 93 % of control

CCCNC(=O)C1C2CCC(CC2)C1C(=O)NCCC (configuration not stated)
inactive: [6] 98 % of control | [8] 98 % of control | [9] 95 % of control

CC(=O)OCC(=O)C1(O)CCC2C3CCC4=CC(=O)CCC4(C)C34OC4CC21C (configuration not stated)
inactive: [20] 98 % of control | [21] 94 % of control | dose: 400.0 mg/kg/injection, schedule: Q01DX009 (ip), vehicle: saline with Tween-80 91 % of control

c1ccc(N=Nn2c3ccccc3c3ccccc32)cc1
inactive: [7] 104 % of control | dose: 200.0 mg/kg/injection, schedule: Q01DX001 (ip), vehicle: saline with Tween-80 102 % of control | dose: 264.0 mg/kg/injection, schedule: Q01DX001 (ip), vehicle: saline with Tween-80 104 % of control | dose: 400.0 mg/kg/injection, schedule: Q01DX001 (ip), vehicle: saline with Tween-80 120 % of control | dose: 600.0 mg/kg/injection, schedule: Q01DX001 (ip), vehicle: saline with Tween-80 104 % of control

Cc1ccc(C(O)(c2ccccc2)c2ccccc2C(=O)Nc2ccccc2)cc1 (configuration not stated)
inactive: [6] 88 % of control | [8] 90 % of control | [9] 95 % of control

O=C(CSCCN1CCCCC1)N1c2ccccc2Sc2ccccc21
inactive: dose: 12.5 mg/kg/injection, schedule: Q04DX003 (ip), vehicle: saline 104 % of control | dose: 25.0 mg/kg/injection, schedule: Q04DX003 (ip), vehicle: saline 101 % of control | dose: 50.0 mg/kg/injection, schedule: Q04DX003 (ip), vehicle: saline 101 % of control

CC[N+](C)(CC)CCNC(=O)C(c1ccccc1)c1ccccc1
inactive: dose: 25.0 mg/kg/injection, schedule: Q01DX009 (ip), vehicle: saline 104 % of control | [1] 102 % of control | [2] 95 % of control

N#CCCN=C1C=CC(=C(c2ccccc2)c2ccc(NCCC#N)cc2)C=C1
inactive: [17] 103 % of control | [18] 103 % of control | [19] 107 % of control

CC(=O)NC(C)NC(C)=O
inactive: [22] 103 % of control | [23] 103 % of control | [24] 103 % of control

O=c1[nH]cnc2c1ncn2C1OC(CO)C(O)C1O.O=c1[nH]cnc2c1ncn2C1OC(CO)C(O)C1O.[NH2-].[NH2-].[Pt+2] (configuration not stated)
inactive: [3] 92 % of control | [4] 96 % of control | [5] 100 % of control | [20] 92 % of control | [21] 103 % of control

CCCCCCCCCCCCCCNC(=O)Nc1ccc(Cl)c(Cl)c1
inactive: dose: 100.0 mg/kg/injection, schedule: Q04DX003 (ip), vehicle: other 89 % of control | dose: 200.0 mg/kg/injection, schedule: Q04DX003 (ip), vehicle: other 86 % of control

Cn1ncc(C#N)c1N
inactive: [10] 117 % of control | [12] 102 % of control | [14] 102 % of control

Cc1cc(N(CCOS(C)(=O)=O)CCOS(C)(=O)=O)ccc1N=Nc1ccccc1
inactive: dose: 3.12 mg/kg/injection, schedule: Q01DX009 (ip), vehicle: Klucel (hydroxypropylcellulose) (HPC) 106 % of control | dose: 6.25 mg/kg/injection, schedule: Q01DX009 (ip), vehicle: Klucel (hydroxypropylcellulose) (HPC) 113 % of control | dose: 12.5 mg/kg/injection, schedule: Q01DX009 (ip), vehicle: Klucel (hydroxypropylcellulose) (HPC) 114 % of control and 124 % of control | dose: 25.0 mg/kg/injection, schedule: Q01DX009 (ip), vehicle: Klucel (hydroxypropylcellulose) (HPC) 101 % of control | dose: 50.0 mg/kg/injection, schedule: Q01DX009 (ip), vehicle: Klucel (hydroxypropylcellulose) (HPC) 95 % of control

CC(=O)OC(C(=O)NC(CC(C)C)C(=O)O)c1ccccc1 (configuration not stated)
inactive: [6] 98 % of control | [8] 95 % of control | [9] 103 % of control

CC(C)(C)CC(C)(C)c1ccc(OCCOc2ccc(C(=O)Nc3ccc(S(=O)(=O)Oc4ccccc4)cc3)cc2[N+](=O)[O-])cc1
inactive: [11] 101 % of control | [6] 98 % of control | [13] 106 % of control | [8] 93 % of control | [15] 95 % of control | [9] 92 % of control

O=C(O)C(=O)c1ccccc1
inactive: [1] 98 % of control | [2] 104 % of control | dose: 200.0 mg/kg/injection, schedule: Q01DX009 (ip), vehicle: saline 107 % of control

O=C(CO)C(OC1OC(CO)C(O)C(O)C1O)C(O)C(O)CO (configuration not stated)
inactive: [22] 103 % of control | [23] 97 % of control | [24] 100 % of control

COC(=O)c1ccccc1C(=O)c1n[nH]c2ccccc12
inactive: dose: 25.0 mg/kg/injection, schedule: Q04DX002 (ip), vehicle: saline with Tween-80 103 % of control | [16] 106 % of control | [17] 106 % of control | [18] 106 % of control

CCCCCC(O)C(C)C (configuration not stated)
inactive: dose: 75.0 mg/kg/injection, schedule: Q01DX001 (ip), vehicle: saline 98 % of control | dose: 150.0 mg/kg/injection, schedule: Q01DX001 (ip), vehicle: saline 91 % of control

Cc1nc(N)sc1S(=O)(=O)F
inactive: [4] 97 % of control | [5] 111 % of control | [20] 94 % of control and 108 % of control | [21] 101 % of control
